{
  "source": "patent US12161621B2",
  "about": "“Methods for fructokinase mediation of alcohol craving and alcohol induced liver disease” (REGENTS OF THE UNIVERSITY OF COLORADO, A BODY CORPORATE, priority 2018, dated 2024)",
  "tested_on": "wild type mice",
  "assay": "two-bottle choice alcohol preference with fructokinase inhibitor",
  "assay_type": "in vivo",
  "conditions": "wild type mice on 10 percent alcohol vs water, fructokinase inhibitor administered for 4 weeks, FIG. 2G",
  "description": "FIG. 2C provides delta FosB expression and densitometry in nucleus accumbens (Nacc) of wild type mice exposed to 0%, 3%, 6% and 10% alcohol for 10 weeks. FIG. 2D includes delta FosB expression and densitometry in nucleus accumbens (Nacc) of wild type and fructokinase knockout mice exposed to 10% alcohol for 10 weeks. […] FIG. 2F provides evidence of conditioned place preference in wild type and fructokinase knockout mice injected alcohol (2 g/kg). Data represents preference shifts for the paired section after vs before conditioning (time spent in the paired chamber posttest-pretest). […] One Way ANOVA with Tukey post hoc analysis; n=5 mice per group. Further evidence that KHK may mediate alcohol preference is shown by a conditioned place preference study, in which mice are injected with either alcohol or saline then placed in a distinctly different section of the apparatus for 4 alcohol and 4 saline trials. The mice were then tested in an alcohol-free state to determine whether they preferred the section of the apparatus that was paired with alcohol. […] It was also determined that preference for alcohol could be blocked by administering a fructokinase inhibitor (i.e., osthol) for 4 weeks to wild type mice on 10 percent alcohol. […] Thus, these studies show the novel finding that blocking fructokinase can block the craving for alcohol.",
  "data": [
    {"smiles": "COc1ccc2ccc(=O)oc2c1CC=C(C)C", "note": "[osthol]", "values": [
      {"measurement": "reduced preference for alcohol in a two bottle preference system", "value": 50, "unit": "%"}
    ]}
  ]
}
